Source: paper doi:10.1101/2025.02.26.640323, “Aggregation-Dependent Epitope Sequence and Modification Fingerprints of Anti-Aβ Antibodies” (bioRxiv, 2025)
“Also recorded” adds a separate entry of the source.

Assays:
[1] = system: amyloid precursor protein (APP770) residues 649–722; test: Peptide microarray epitope pre-screening (overlapping 15-mers); format: binding, human; settings: 0.5–1 μg/mL antibody
Protocol: Information regarding binding epitopes and /or immunogens for most of the tested Aβ-Abs has been published and is summarized in Table 1. However, the binding epitope information was derived from varying methodologies. To provide an initial side-by-side comparison we pre-screened all of the listed Aβ-Abs in array format using copies of peptide libraries and standard antibody concentrations of 0.5–1 μg/mL (Figure 1a). The library comprised the amyloid precursor protein (APP770) residues 649–722, corresponding to the canonical Aβ1–42 amino acid sequence with additional 23 amino terminal and 9 carboxy terminal residues. […] For optimal signal to noise ratios and ideal selectivity profiles on the microarrays, the Aβ-Ab concentrations were adjusted for 3D6, 82E1, 11H3, 80C2 and 7H3D6 (Figure 1 – figure- supplement 1) and (Appendix 1–7). […] Specifically, Donanemabbs, 2–48 and Aβ-pE3 were raised against AβpE3-x (Table 1) and were expected to show preference for Aβ peptides starting with a pE(3).
Figure 1. Microarray workflow and Aβ-Ab epitope pre-screening. (a) Schematic of the microarray workflow. The library comprised the amyloid precursor protein (APP) residues 649–722 (APP770 numbering), corresponding to Aβ residues −23 to 51, as a library of 15-mer peptides overlapping by 14AAs, copied in dozens, and probed for Aβ-Abs binding followed by analysis in MARTin. (b) The epitope screening binding data are summarized as a heatmap. Blue and red shades indicate the relative binding strength of the related arrayed peptides to the left and cognate Aβ-Ab on top. The blue – red scale is visualizing the normalized binding intensity for each antibody individually. The applied antibody concentrations ranged between 0.5–1 μg/mL.
The μSPOT assay was performed as previously described. […] Peptide arrays were synthesized using MultiPep RSi robot (CEM GmbH, Kamp-Lintford, Germany) on cellulose discs containing Fmoc-β-Ala linkers. Natural amino acid building blocks were purchased from IRIS (IRIS Biotech GmbH, Marktredwitz, Germany). Special building blocks employed in this study such as isomers, stereoisomers, phosphorylation and pyroglutamination […] modifications are listed here: Fmoc-L-Ser(PO(OBzl)OH)-OH (Iris – FAA1423), L-Pyroglutamic acid pentachlorophenyl ester (Novabiochem - 8.54203), Fmoc-L-Asp-OtBu (Iris – FAA1356), Fmoc-D-Asp-OtBu (Carbosolutions – CC05095) and Fmoc-D-Asp(tBu)-OH (Iris – FAA1309). Synthesis was carried out by deprotecting the Fmoc-group using 20% piperidine in dimethylformamide (DMF). Peptide chains were elongated using a coupling solution consisting of amino acids (0.5M) with oxyma (1M) and DIC (1M) in DMF (1:1:1). Coupling steps were carried out 3 times (30min), followed by capping (4% acetic anhydride in DMF). Discs were transferred into 96 deep-well plates for the work-up.

AβpE3-x = test: PTM-Aβ microarray, pE3; format: binding, human; settings: Donanemabbs 0,0012μg/mL, 2–48, Aβ-pE3, IC16 […], vs Aβ3-x with non-cyclized Glu
From the text: Specific PTMs might be associated with different stages of AD progression and severity, offering potential biomarkers for diagnosis and prognosis. Targeting PTMs represents a potential therapeutic strategy to prevent Aβ aggregation and neurotoxicity, thereby slowing disease progression. […] Therefore, a selected group of PTM-carrying Aβ peptides (PTM-Aβ) were incorporated into the Aβ chip to explore the potential binding preference of selected Aβ-Abs, under optimized concentrations (Figure 3). The antibodies were tested with both PTM-Aβ and the corresponding unmodified variants to provide a head-to-head comparison. This screening was performed in the presence of Aβ phosphorylated at positions Ser(8) or Ser(26), N-terminal pE at position 3, racemization/isomerization of Asp at position 1, and unmodified N-terminal variants. The dataset is divided into sections (Figure 3 a–f) for enhanced visualization, where each antibody was screened simultaneously against all peptides to locate their epitope preferences. […] A set of antibodies without reported PTM preference was applied here as controls (refer to Table 1), namely 11H3, 101–1-1, IC16, 82E1 and 3D6.
Figure 3. […] Blue and red shades indicate the binding strength over the related arrayed […] modified peptide shown on top and cognate anti-Aβ antibody to the left. […]

Aβ = settings: ref [47],[64],[57],[14]; cited from earlier work
CAA fibrils = settings: ref [38],[47]; cited from earlier work
From the text: Despite extensive structural, genetic, and pre-clinical investigations, clinical trials of Aβ antibodies have yielded ambiguous outcomes. Aβ antibody binding to cerebral amyloid angiopathy (CAA) has been hypothesized to correlate with the frequency of amyloid-related imaging abnormalities with edema (ARIA-E) observed in patients treated with Aβ-based immunotherapies.

Donanemab: Eli Lilly's Donanemab, approved in the US as Kisunla [reference compound]
Array: epitope identified in this study on microarrays ([1]; Aβ residue numbers, 15-mer peptides overlapping by 14AAs on cellulose conjugates, chemiluminescence): 3–10
binding in epitope pre-screening ([1]; unmodified Aβ-related 15-mers, generic pre-screening conditions): produced detectable signals in this pre-screening with unmodified Aβ-related peptides
selectivity for / binding to AβpE3-x (AβpE3-x): cyclized AβpE3-x as the dominant binding determinant
reported selectivity for modified Aβ (Aβ): selective for AβpE3; also recorded: known to recognize Aβ starting with cyclized pE3
binding to CAA fibrils (CAA fibrils): binds to CAA fibrils in proportion to the amount of pyroglutamate-modified Aβ they present
